This data set has as its target Cytochrome P450 2D6 (Homo sapiens, UniProt P10635). Kind of data set: Inhibition of Dextromethorphan Metabolism: Dextromethorphan O-demethylase activity was determined in human liver microsomes. […] The incubation mixtures contained pooled human liver microsomes (final concentrations: 0.25 mg/ml), dextromethorphan, and a NADPH-generating system (1.3 mM NADP+, 3.3 mM glucose 6-phosphate, 3.3 mM MgCl2, and 0.4 U/ml glucose-6-phosphate dehydrogenase). […] All incubations were performed in triplicate, and mean values were used for analysis. A general note: Liver microsomes are vesicles of endoplasmic reticulum, rich in cytochrome P450 enzymes.

Chain of Cytochrome P450 2D6 (P10635 whole entry): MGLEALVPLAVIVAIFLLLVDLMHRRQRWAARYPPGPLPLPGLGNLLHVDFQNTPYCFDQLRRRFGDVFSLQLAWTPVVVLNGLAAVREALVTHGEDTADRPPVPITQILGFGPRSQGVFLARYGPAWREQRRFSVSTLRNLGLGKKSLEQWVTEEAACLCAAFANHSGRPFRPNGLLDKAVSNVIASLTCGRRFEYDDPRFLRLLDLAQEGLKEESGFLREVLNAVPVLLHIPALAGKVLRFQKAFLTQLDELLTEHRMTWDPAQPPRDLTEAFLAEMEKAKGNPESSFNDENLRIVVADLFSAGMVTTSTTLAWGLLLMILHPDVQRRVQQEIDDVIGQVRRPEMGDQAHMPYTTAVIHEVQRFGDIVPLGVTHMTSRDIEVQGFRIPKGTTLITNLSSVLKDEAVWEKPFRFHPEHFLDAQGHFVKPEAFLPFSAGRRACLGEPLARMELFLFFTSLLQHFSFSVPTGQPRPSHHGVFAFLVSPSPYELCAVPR

The IC50 is the concentration at which inhibition is half-maximal. As for `COc1ccc(CCc2ccccc2OCC(CN(C)C)OC(=O)CCC(=O)O)cc1` (stereo unspecified), the IC50 is 1200 nM.
